Experimental findings from patent US6054591A, “Lymph-absorbable aryl substituted imidazole derivatives” (Shionogi & Co., Ltd., priority 1996, dated 2000) are described below.

This experiment concerns HIV (HTLV-IIIB strain). The experiment is described as follows: Infection inhibitory activity (anti-HIV activity, MTT assay in MT-4 cells). It is filed as cell-based. As to the method: Infection inhibitory activity of the compound
The anti-HIV activity of the representative compounds prepared in the above examples was assayed by the following procedures.
Human T cell line MOLT-4 clone 8 persistently infected by HIV (HTLV-IIIB strain) was cultured in an RPMI-1640 medium supplemented with 10% fetal calf serum, the culture supernatant was filtered, the titer of virus was determined on the filtrate, and the culture supernatant was stored at -80° C. On the other hand, the test compound was diluted with the above culture medium to predetermined concentration range 1 μg/ml to 1 ng/ml and distributed in 50 μl aliquots into a 96-well microtiter plate. Then, a suspension of MT-4 cells was added in 100 μl aliquots (3.5×10^4 cells per well) and then 50 μl (60 pfu (plaque forming units)) per well of the above HIV-containing supernatant diluted with the above culture medium each was added.
The plate was incubated in a CO2 incubator at 37° C. for 5 days. Then, 30 μl/well of 3-(4,5-dimethylthiazol-2-yl)-2,5-[…] (MTT) and 5 mg/ml PBS was added and the incubation was further continued for 1 hour. The surviving cells reducing MTT yield precipitation of formazan. Therefore, 150 μl portions of the culture supernatant were removed from all wells and, instead, 150 μl of a solution (10% Triton X-100 and 0.4% (v/v) HCl added isopropanol) was added. The plate was shaken on a plate mixer to dissolve the formazan. The OD of formazan was measured with a microreader at 560 nm and 690 nm (reference wavelength) and the result was compared with that of control. The cytotoxic effect for the virus was expressed as EC50.

Setting [1] is: Human immunodeficiency virus 1, MT4, 120 h, MT-4 cells, HIV HTLV-IIIB, 5 days at 37° C., MTT, read-out: EC50.
The mark [2] stands for this setting: Human immunodeficiency virus 1, IIIB, MT4, 120 h.

SMILES strings stand for the structures. Converted amounts (≈) assume the structure as drawn. Where two headings read alike, the source gives them in different places.

Turning to `CCCCCCCC(=O)NC(=O)OCc1nc(C(C)C)c(Sc2cc(Cl)cc(Cl)c2)n1CC` [Compound 82, 5-(3,5-Dichlorophenylthio)-1-ethyl-4-isopropyl-1H-imidazol-2-ylmethyl octanoylcarbamate], the EC50 under setting [1] was 8 to 16 ng/mL (≈ 0.0155 to 0.0311 µM). The same measure, in the same setting: the result for `Cc1nc(C(C)C)c(Sc2cc(Cl)cc(Cl)c2)n1COCCO` [Compound 8, 5-(3,5-Dichlorophenylthio)-4-isopropyl-1-[2-hydroxyethoxymethyl]-2-methyl-1H-imidazole] reads 5 ng/mL (≈ 0.0133 µM). Same read-out and setting: the result for `CC(C)c1nc(CO)n(C)c1Sc1cc(Cl)cc(Cl)c1` [Compound 14, 5-(3,5-dichlorophenylthio)-4-isopropyl-1-methyl-2-hydroxymethyl-1H-imidazole] reads 16 ng/mL (≈ 0.0483 µM); that for `CCn1c(COC(=O)NC(=O)c2ccc(Cl)cc2)nc(C(C)C)c1Sc1cc(Cl)cc(Cl)c1` [Compound 86, 5-(3,5-Dichlorophenylthio)-1-ethyl-4-isopropyl-1H-imidazol-2-ylmethyl 4-chlorobenzoylcarbamate], 8 ng/mL (≈ 0.0152 µM). Still for that read-out and setting: the result for `CCCCCCCC(=O)OCc1nc(C(C)C)c(Sc2cc(Cl)cc(Cl)c2)n1CC` [Compound 108, 5-(3,5-Dichlorophenylthio)-1-ethyl-4-isopropyl-1H-imidazol-2-ylmethyl octanoate] reads 8 ng/mL (≈ 0.017 µM). As for `CCn1c(CO)nc(C(C)C)c1Sc1cc(Cl)cc(Cl)c1` [Compound 19, 2-hydroxymethyl-5-(3,5-dichlorophenylthio)-4-isopropyl-1-ethyl-1H-imidazole], the EC50 under setting [1] was 4 ng/mL (≈ 0.0116 µM). In the case of `CC(C)c1nc(COC(N)=O)n(Cc2ccncc2)c1Sc1cc(Cl)cc(Cl)c1` [Compound 111, 5-(3,5-dichlorophenylthio)-4-isopropyl-1-(4-pyridylmethyl)-1H-imidazol-2-ylmethyl carbamate], the EC50 under setting [1] stood at 0.9 ng/mL (≈ 0.00199 µM). Still for that read-out and setting: the result for `CCCCN(CCCC)CNC(=O)OCc1nc(C(C)C)c(Sc2cc(Cl)cc(Cl)c2)n1Cc1ccncc1` [Compound 112, 5-(3,5-Dichlorophenylthio)-4-isopropyl-1-(4-pyridylmethyl)-1H-imidazol-2-ylmethyl di-n-butylaminomethylcarbamate] reads 3 ng/mL (≈ 0.00506 µM); that for `CCn1c(COC(=O)NC(C)=O)nc(C(C)C)c1Sc1cc(Cl)cc(Cl)c1` [Compound 80, 5-(3,5-Dichlorophenylthio)-1-ethyl-4-isopropyl-1H-imidazol-2-ylmethyl acetylcarbamate], 1 ng/mL (≈ 0.00232 µM); that for `Cc1nc(C(C)C)c(Sc2cc(Cl)cc(Cl)c2)n1COCCOC(=O)CCC(=O)O` [Compound 76, Mono-{2-[5-(3,5-dichlorophenylthio)-4-isopropyl-2-methyl-imidazol-1-ylmethoxy]ethyl succinate], 8 ng/mL. As to `CCn1c(COC(=O)NC(=O)c2cc(Cl)cc(Cl)c2)nc(C(C)C)c1Sc1cc(Cl)cc(Cl)c1` [Compound 87, 5-(3,5-Dichlorophenylthio)-1-ethyl-4-isopropyl-1H-imidazol-2-ylmethyl 3,5-dichlorobenzoylcarbamate], the 50% effective concentration (EC50) under setting [1] worked out at 8 ng/mL (≈ 0.0143 µM). Same read-out and setting: for `CC(C)c1nc(COC(=O)NCN2CCOCC2)n(Cc2ccncc2)c1Sc1cc(Cl)cc(Cl)c1` [Compound 113, 5-(3,5-Dichlorophenylthio)-4-isopropyl-1-(4-pyridylmethyl)-1H-imidazol-2-ylmethyl morpholinomethylcarbamate] the value was 3 to 5 ng/mL (≈ 0.00545 to 0.00908 µM). `CC(C)c1nc(COC(=O)NC(=O)Oc2ccc(-c3ccccc3)cc2)n(Cc2ccncc2)c1Sc1cc(Cl)cc(Cl)c1` [Compound 103, 5-(3,5-Dichlorophenylthio)-4-isopropyl-1-(4-pyridylmethyl)-1H-imidazol-2-ylmethyl 4-biphenyl iminodicaboxylate] came in with an EC50 under setting [2] of 8 ng/mL (≈ 0.0124 µM). Regarding `CCn1c(CCO)nc(C(C)C)c1Sc1cc(Cl)cc(Cl)c1` [Compound 54], under setting [1], the EC50 was found to be 2 ng/mL (≈ 0.00557 µM).

Regarding `CCCCCCCC(=O)NC(=O)OCc1nc(C(C)C)c(Sc2cc(Cl)cc(Cl)c2)n1Cc1ccncc1` [Compound 91, 5-(3,5-Dichlorophenylthio)-4-isopropyl-1-(4-pyridylmethyl)-1H-imidazol-2-ylmethyl octanoylcarbamate], under setting [1], the EC50 fell in the range of 8 to 16 ng/mL (≈ 0.0139 to 0.0277 µM). For the molecule `CC(C)c1nc(COC(=O)NCN(Cc2ccccc2)Cc2ccccc2)n(Cc2ccncc2)c1Sc1cc(Cl)cc(Cl)c1` [Compound 114, 5-(3,5-Dichlorophenylthio)-4-isopropyl-1-(4-pyridylmethyl)-1H-imidazol-2-ylmethyl dibenzylaminomethylcarbamate], the concentration giving a half-maximal response (EC50) under setting [1] is 3 to 5 ng/mL (≈ 0.00454 to 0.00757 µM). Still for that read-out and setting: for `Cc1cc(C)cc(Sc2c(C(C)C)nc(C)n2COCCOC(=O)CCC(=O)O)c1` [Compound 68, Mono-{2-[5-(3,5-dimethylphenylthio)-4-isopropyl-2-methyl-imidazol-1-yl]methoxyethyl}succinate] the value was 8 ng/mL; for `CC(=O)NC(=O)OCc1nc(C(C)C)c(Sc2cc(Cl)cc(Cl)c2)n1Cc1ccncc1` [Compound 90, 5-(3,5-Dichlorophenylthio)-4-isopropyl-1-(4-pyridylmethyl)-1H-imidazol-2-ylmethyl acetylcarbamate], below 8 ng/mL; for `CCn1c(CCOC2=CCCCCCC2)nc(C(C)C)c1Sc1cc(Cl)cc(Cl)c1` [Compound 59], 2.5 to 5 ng/mL (≈ 0.00535 to 0.0107 µM). In the case of `Cc1nc(C(C)C)c(Sc2cc(Cl)cc(Cl)c2)n1COCCOC(=O)CCCCCCCCCCCCCCC(=O)O` [Compound 75, Mono-{2-[5-(3,5-dichlorophenylthio)-4-isopropyl-2-methyl-imidazol-1-ylmethoxy]ethyl} hexadecanedioate], the EC50 under setting [1] is 8 ng/mL (≈ 0.0124 µM). Turning to `Cc1nc(C(C)C)c(Sc2cc(Cl)cc(Cl)c2)n1COCCOCOC(=O)C(C)(C)C` [Compound 77, 2-[5-(3,5-Dichlorophenylthio)-4-isopropyl-2-methyl-imidazol-1-ylmethoxy]ethyl 2,2-dimethylpropionyloxymethyl ether], under setting [1], the EC50 came out at 8 ng/mL (≈ 0.0163 µM).

Take `Cc1nc(C(C)C)c(Sc2cc(Cl)cc(Cl)c2)n1COCCOC1=CCCCCCC1` [Compound 11, 1-[2-(Cycloocten-1-yloxy)ethoxymethyl]-5-(3,5-dichlorophenylthio)-4-isopropyl-2-methyl-1H-imidazole]: the EC50 under setting [1] stood at 8 ng/mL (≈ 0.0165 µM). Same read-out and setting: for `CCCCCCCCCC(=O)NC(=O)OCc1nc(C(C)C)c(Sc2cc(Cl)cc(Cl)c2)n1Cc1ccncc1` [Compound 92, 5-(3,5-Dichlorophenylthio)-4-isopropyl-1-(4-pyridylmethyl)-1H-imidazol-2-ylmethyl decanoylcarbamate] the value was below 8 ng/mL. `CC(C)c1nc(COC(=O)NC(=O)Oc2cccc3ccccc23)n(Cc2ccncc2)c1Sc1cc(Cl)cc(Cl)c1` [Compound 104, 5-(3,5-Dichlorophenylthio)-4-isopropyl-1-(4-pyridylmethyl)-1H-imidazol-2-ylmethyl 1-naphthyl iminodicaboxylate] registered an EC50 under setting [2] below 8 ng/mL. For `CCCCCCCCCC(=O)OCc1nc(C(C)C)c(Sc2cc(Cl)cc(Cl)c2)n1CC` [Compound 109, 5-(3,5-Dichlorophenylthio)-1-ethyl-4-isopropyl-1H-imidazol-2-ylmethyl decanoate], the EC50 under setting [1] fell in the range of 8 to 16 ng/mL (≈ 0.016 to 0.032 µM). Still for that read-out and setting: the result for `Cc1cc(C)cc(Sc2c(C(C)C)nc(C)n2COCCO)c1` [Compound 1, 5-(3,5-dimethylphenylthio)-4-isopropyl-1-(2-hydroxyethoxymethyl)-2-methyl-1H-imidazole] reads 8 ng/mL (≈ 0.0239 µM).
